Like-named read-outs stand apart in the source and are kept apart here.
Tests used:
[1] = molecular target: T1, VISTA (V-type immunoglobulin domain–containing suppressor of T-cell activation) (Homo sapiens, UniProt Q9H7M9); assay: SPR (Biacore T200, human VISTA immobilized on CM5 chip); type: binding
T1 construct: gene VSIR; human VISTA-ECD protein
T1 sequence (Q9H7M9 33-194): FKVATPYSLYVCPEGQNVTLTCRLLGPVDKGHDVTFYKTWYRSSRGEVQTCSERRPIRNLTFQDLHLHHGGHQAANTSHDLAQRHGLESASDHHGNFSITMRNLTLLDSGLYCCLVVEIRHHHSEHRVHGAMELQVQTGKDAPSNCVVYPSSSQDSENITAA

[2] = molecular target: T2, VISTA (V-type immunoglobulin domain–containing suppressor of T-cell activation) (Homo sapiens, UniProt Q9H7M9); assay: as above; type: binding
T2 construct: gene VSIR; human VISTA protein
T2 sequence (Q9H7M9 33-194 limits assumed): T1 sequence (Q9H7M9 33-194)

Row | Kd [1] [nM] | Kd [2] [nM] | Structure (SMILES)
1 | 210 |  | O=C1c2c(O)c(=O)ccn2N([C@@H]2c3ccccc3SCc3c2ccc(F)c3F)[C@@H]2COCCN12 [BXA, baloxavir acid]
2 |  | 1070 | COC(=O)OCOc1c2n(ccc1=O)N([C@@H]1c3ccccc3SCc3c1ccc(F)c3F)[C@@H]1COCCN1C2=O [BXM, baloxavir marboxil]
